In PMC6476959, “Novel 3,4-Dihydroisocoumarins Inhibit Human P-gp and BCRP in Multidrug Resistant Tumors and Demonstrate Substrate Inhibition of Yeast Pdr5” (Frontiers in Pharmacology, 2019):

Tested on: S. cerevisiae strain expressing Pdr5 WT
Experiment: Liquid drug assay, yeast strain expressing Pdr5 WT
Format: cell-based, Saccharomyces cerevisiae
Details: serial dilutions, 48 h, 30°C, OD600
Description: The following S. cerevisiae yeast strain was used: YRE1001 (MATa ura3-52 trp1-1 leu2-3,112 his3-11,15 ade2-1 pdr1-3 pdr5pdr5promΔ::TRP1). S. cerevisiae was cultured in YPD medium (10 g/L yeast extract, 20 g/L peptone, 2% glucose) at 30°C and 200 rpm. The yeast strain has been described previously ([Ernst et al., 2008]; [Gupta et al., 2014]). Based on these studies it is evident that Pdr5 localizes to the PM and is present in approximately 10% of the overall membrane protein content of the PM.
The liquid drug assay was carried out in sterile 96-well plates. 50 μl of yeast cell culture at an OD600 of 0.15 were mixed with 193.75 μl YPD and 6.25 μl of the test compound or DMSO as a negative control. To distinguish between cytotoxic compounds and those which inhibit Pdr5 WT specifically, the Pdr5 substrate ketoconazole was added only to cultures expressing wild-type Pdr5 in a final concentration of 1 μg/ml. At this concentration, inhibition of Pdr5 would result in ketoconazole-mediated cell death. After 48 h at 30°C the growth was measured with an ELISA plate reader (BioRad, Hercules, CA, United States) at 595 nm.

In the case of `CCCCCC1Cc2cc(OC)cc(OC)c2C(=O)O1` (stereo not shown) [Compound 16a], the “Effect on growth of yeast strain expressing Pdr5 WT” value is reported as “no effect on the wild-type strain”.
